# Where a name gives a salt, the structure may show the parent alone. Read-outs that look alike come from different tables or passages of the source.
# What was measured:
# [1] = molecular target: T1, human α2a adrenergic receptor (Homo sapiens, UniProt P08913); assay: Equilibrium competition binding, [3H]rauwolscine, cloned human α2a; conditions: cloned human α2a, membrane preparations, [3H]rauwolscine; read-out: α2a pKi (converted)
# T1 construct: expressed in transfected cells; host or cells: LM(tk−) cells (L-α2A, ATCC CRL-11180), vector pCEXV-3
# T1 sequence (P08913 1-465): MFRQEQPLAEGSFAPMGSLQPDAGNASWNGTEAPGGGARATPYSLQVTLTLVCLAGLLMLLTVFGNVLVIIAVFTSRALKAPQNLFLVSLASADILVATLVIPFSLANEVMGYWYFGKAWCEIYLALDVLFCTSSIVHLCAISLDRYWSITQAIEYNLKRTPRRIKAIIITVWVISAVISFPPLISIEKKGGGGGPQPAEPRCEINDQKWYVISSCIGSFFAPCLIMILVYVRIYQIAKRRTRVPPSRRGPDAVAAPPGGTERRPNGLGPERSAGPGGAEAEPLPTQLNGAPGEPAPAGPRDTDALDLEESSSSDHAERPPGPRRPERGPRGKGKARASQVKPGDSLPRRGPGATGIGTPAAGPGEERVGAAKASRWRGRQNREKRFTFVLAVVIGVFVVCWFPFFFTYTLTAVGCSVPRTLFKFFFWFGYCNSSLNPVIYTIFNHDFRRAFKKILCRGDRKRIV
# Protocol: (§1) Binding and functional assays were performed using stably transfected cells expressing human α adrenergic receptors. Equilibrium competition binding assays were performed with membrane preparations from cultured LM(tk−) cells stably transfected with the cloned human adrenoceptor subtypes except for a21, which was expressed In Y-1 cells, using [^3H]prazosin for α1 receptors and [^3H]rauwolscine for […].
# (§2) These cell lines were prepared by transfecting cloned cDNA or cloned genomic DNA or constructs containing both genomic DNA and cDNA encoding the human a adrenergic receptors as described below.
# The insert housing this coding region was a 2.5 kb Kpnl/HindIII human placenta genomic fragment which was end-blunted by either T4 polymerase or Klenow fragment of DNA polymerase. Stable cell lines were obtained by to-transfection with the plasmid pGCcos3neo (plasmid containing the α2a receptor gene) and the plasmid pGCcos3neo (plasmid containing the aminoglycoside transferase gene) into LM(tk−), CHO, and NIH3T3 cells, using calcium phosphate technique. The cells were grown in a controlled environment (37° C., 5% CO2) as monolayers in Dulbecco's modified Eagle's Medium (GIBCO, Grand Island, N.Y.) containing 25 mM glucose and supplemented with 10% bovine calf serum, 100 units/mL penicillin g, and […] streptomycin sulfate.
# (§3) The stable cell lines described above were scraped from culture flasks into 5 mL of 5 mM Tris-HCl, […], pH 7.5, and lysed by sonication. The cell lysates were centrifuged at 1,000 rpm for 5 min. at 4° C., and the supernatant was centrifuged at 30,000×g for 20 min. at 4° C. The pellet was suspended in 50 mM Tris-HCl, 1 mM MgCl2, and 0.1% ascorbic acid at pH 7.5. Binding of the α2 antagonist [^3H]rauwolscine (0.5 nM) or the α1 antagonist [^3H]prazosin (0.5 nM) to membrane preparations of LM(tk−) cells was done in a final volume of 0.25 mL and incubated at 37° C. for 20 min. Nonspecific binding was determined in the presence of […]. The reaction was stopped by filtration through GF/B filters using a cell harvester.
# [2] = molecular target: T1, human α2a adrenergic receptor; assay: α2 agonist activity: inhibition of forskolin-stimulated cAMP synthesis, α2a cells; assay type: cell-based
# Protocol: as §1, §2
# (§4) The agonist activity (expressed as pEC50) was measured as a function of the ability to inhibit the forskolin-stimulated synthesis of cyclic adenosine monophosphate (cAMP). The stably transfected cells were incubated in Ham's F10 with 5 mM theophylline, 10 mM HEPES, 17 mM pargyline, and/or appropriate concentrations of forskolin for 20 min. at 37° C. in 5% CO2. The tested compounds were then added to a final concentration of 0.001 nM to 1 mM and incubated for an additional 15 min. at 37° C. in 5% CO2. The medium was aspirated and the reaction was stopped by the addition of 100 mM HCl. […] The plates were stored at 4° C. for 15 min. and assayed to determine the linear concentration of cAMP. The appropriate dilution was interpolated from the standard curve of cold cAMP. The assessment of cAMP formation was determined by radioimmunoassay (cAMP radioimmunoassay kit; Advanced magnetics, Cambridge, Mass.). Radioactivity was quantified using a Packard COBRA Auto Gamma counter equipped with data reduction software.
# [3] = molecular target: T2, human α2c adrenergic receptor (Homo sapiens, UniProt P18825); assay: α2 agonist activity: inhibition of forskolin-stimulated cAMP synthesis, α2c cells; assay type: cell-based; conditions: inhibition of forskolin-stimulated cAMP, cloned human α2c; for EC50: read-out: α2c pEC50 (converted)
# T2 construct: The entire coding region of α2c (1383 bp), including 2 bp of 5′ UT and 400 bp of 3′ UT; expressed in transfected cells; host or cells: LM(tk−) cells (L-α2c, ATCC CRL-11181), vector pCEXV-3
# T2 sequence (P18825 1-462): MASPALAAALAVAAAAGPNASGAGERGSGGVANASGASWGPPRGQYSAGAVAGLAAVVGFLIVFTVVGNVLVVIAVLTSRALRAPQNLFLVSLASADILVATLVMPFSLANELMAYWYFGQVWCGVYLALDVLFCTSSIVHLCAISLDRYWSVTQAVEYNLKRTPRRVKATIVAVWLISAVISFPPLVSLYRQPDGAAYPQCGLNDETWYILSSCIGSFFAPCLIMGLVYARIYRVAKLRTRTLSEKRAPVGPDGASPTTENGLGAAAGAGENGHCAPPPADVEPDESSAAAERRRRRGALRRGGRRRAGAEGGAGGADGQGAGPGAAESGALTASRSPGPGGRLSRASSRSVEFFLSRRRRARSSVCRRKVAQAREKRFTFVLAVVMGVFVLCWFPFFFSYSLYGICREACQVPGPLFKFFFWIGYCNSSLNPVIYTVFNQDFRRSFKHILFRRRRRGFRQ
# Protocol: as §1, §2, §4
# [4] = molecular target: T3, human α2b adrenergic receptor (Homo sapiens, UniProt P18089); assay: Equilibrium competition binding, [3H]rauwolscine, cloned human α2b; conditions: cloned human α2b, membrane preparations, [3H]rauwolscine; read-out: α2b pKi (converted)
# T3 construct: expressed in transfected cells; host or cells: stably transfected cells, vector pcEXV-3; deposited line L-NGC-α2B (ATCC CRL-10275)
# T3 sequence (P18089 1-450): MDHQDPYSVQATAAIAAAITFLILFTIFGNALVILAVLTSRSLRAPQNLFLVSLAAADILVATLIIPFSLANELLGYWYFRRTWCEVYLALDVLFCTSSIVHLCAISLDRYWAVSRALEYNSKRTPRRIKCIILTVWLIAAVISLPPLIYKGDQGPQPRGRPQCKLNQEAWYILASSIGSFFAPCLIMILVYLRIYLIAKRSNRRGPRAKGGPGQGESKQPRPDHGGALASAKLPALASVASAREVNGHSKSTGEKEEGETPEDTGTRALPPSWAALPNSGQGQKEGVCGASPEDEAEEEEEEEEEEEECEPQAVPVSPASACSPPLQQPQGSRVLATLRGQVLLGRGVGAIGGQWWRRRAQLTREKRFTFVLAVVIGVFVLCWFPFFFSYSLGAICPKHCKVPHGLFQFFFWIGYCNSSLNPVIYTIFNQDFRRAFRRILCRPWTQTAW
# Protocol: as §1, §2
# Stable cell lines were selected as described above.
# as §3
# [5] = molecular target: T2, human α2c adrenergic receptor; assay: Equilibrium competition binding, [3H]rauwolscine, cloned human α2c; conditions: cloned human α2c, membrane preparations, [3H]rauwolscine; read-out: α2c pKi (converted)
# Protocol: as §1, §2
# The insert housing this coding region was a 1.8 kb Ncol/EcoR1 human spleen genomic fragment which was end-blunted by either T4 polymerase or Klenow fragment of DNA polymerase. Stable cell lines were selected as described above.
# as §3
# [6] = molecular target: T3, human α2b adrenergic receptor; assay: α2 agonist activity: inhibition of forskolin-stimulated cAMP synthesis, α2b cells; assay type: cell-based; conditions: inhibition of forskolin-stimulated cAMP, cloned human α2b; for EC50: read-out: α2b pEC50 (converted)
# Protocol: as §1, §2, §4
# [7] = inhibition of forskolin-stimulated cAMP, cloned human α2a
smiles,measurement,setting,value
C1=NC(Cc2ccnc3ccccc23)CN1.O=C(O)/C=C/C(=O)O (centres unmarked),melting point,,180 to 182 °C
CC1CCc2ncc(NC3=NCCN3)cc2C1 (centres unmarked) (as salt: fumarate),melting point,,192 to 195 °C (dec.)
"O=C1CCCc2ccc(NC3=NCCN3)c(Br)c21 (as salt: fumarate) [Example 5, 2-(8-Bromo-1,2,3,4-Tetrahydro-1-oxo-naphth-7-yl)amino-2-imidazoline]",melting point,,204 to 207 °C (dec.)
"CC(c1c[nH]cn1)c1cc(-c2ccccc2)nc2ccccc12 (centres unmarked) [Example 36, 4-[1-(1H-Imidazol-4-yl)-ethyl]-2-phenyl-quinoline dihydrochloride]",Ki,[1],2.69 nM
same,EC50,"[2]; inhibition of forskolin-stimulated cAMP, cloned human α2a, read-out: α2a pEC50 (converted)",10000 nM
same,EC50,[3],7.24 nM
same,Ki,[4],40.7 nM
same,Ki,[5],16.2 nM
same,EC50,[6],2820 nM
Brc1cc2c(c(Br)c1NC1=NCCN1)CCC2,melting point,,163 to 164 °C
"c1nc2c(cc1NC1=NCCN1)CCC2 (as salt: fumarate) [Example 21, 2-(2,3-Cyclopentenopyrid-5-yl)amino-2-imidazoline]",melting point,,182 to 183.5 °C
"Cc1nc2c(c(C)c1NC1=NCCN1)CCC2 [Example 30, 2-(5,6-Cyclopenteno-2,4-dimethyl-pyrid-3-yl)amino-2-imidazoline]",Ki,[1],17.8 nM
same,EC50,[2],2.95 nM
same,α2a IA (Intrinsic Activity),[2]; [7],(1.00)
same,α2c IA (Intrinsic Activity),[3],(1.00)
same,EC50,[3],6.31 nM
same,Ki,[4],36.3 nM
same,Ki,[5],309 nM
same,α2b IA (Intrinsic Activity),[6],(0.43)
same,EC50,[6],148 nM
"CON=C1CCCc2ccc(NC3=NCCN3)cc21 (as salt: fumarate) [Example 8, 2-(1,2,3,4-Tetrahydro-1-methoxyimino-naphth-7-yl)amino-2-imidazoline]",melting point,,201 to 202 °C (dec.)
c1nc2c(cc1NC1=NCCN1)CCCC2 (as salt: fumarate),melting point,,201 to 203 °C
"Cc1cccc(C(C)c2cnc[nH]2)c1C (centres unmarked) [Medetomidine, reference compound]",α2a IA (Intrinsic Activity),[2]; [7],(1.00)
same,α2c IA (Intrinsic Activity),[3],(1.00)
same,EC50,[3],1.48 nM
same,Ki,[5],5.37 nM
"Brc1nc2c(c(Br)c1NC1=NCCN1)CCC2 [Example 29, 2-(2,4-Dibromo-5,6-cyclopentenopyrid-3-yl)amino-2-imidazoline]",Ki,[1],14.8 nM
same,EC50,[2],15.8 nM
same,α2a IA (Intrinsic Activity),[2]; [7],(1.00)
same,α2c IA (Intrinsic Activity),[3],(1.00)
same,EC50,[3],13.8 nM
same,Ki,[4],51.3 nM
same,Ki,[5],251 nM
same,α2b IA (Intrinsic Activity),[6],(0.40)
same,EC50,[6],91.2 nM
"CC(=O)N1CCc2cc(NC3=NCCN3)ccc21 (as salt: fumarate) [Example 9, 2-(1-Acetyl-indolin-5-yl)amino-2-imidazoline]",melting point,,200 to 203 °C (dec.)
"Cc1nc2c(c(C)c1NC1=NCCN1)CCC2 (as salt: fumarate) [Example 30, 2-(5,6-Cyclopenteno-2,4-dimethyl-pyrid-3-yl)amino-2-imidazoline]",melting point,,220 to 221 °C
CC1(C)CCCc2cc(NC3=NCCN3)cnc21 (as salt: fumarate),melting point,,185 to 186 °C (dec.)
"Brc1c(NC2=NCCN2)ccc2nccnc12 [UK-14, 304, reference compound]",α2c IA (Intrinsic Activity),[3],(1.00)
Br.Brc1cc2c(cc1NC1=NCCN1)CCC2,melting point,,220 to 221 °C
"O=C1CCCc2ccc(NC3=NCCN3)cc21 (as salt: fumarate) [Example 4, 2-(1,2,3,4-Tetrahydro-1-oxo-naphth-7-yl)amino-2-imidazoline]",melting point,,198 to 201 °C (dec.)
CC1CCCc2cc(NC3=NCCN3)cnc21 (centres unmarked) (as salt: fumarate),melting point,,155 to 160 °C (dec.)
OC1CCCc2ccc(NC3=NCCN3)cc21 (centres unmarked) (as salt: fumarate),melting point,,180 to 182 °C (dec.)
c1nc2c(cc1NC1=NCCN1)COCC2 (as salt: fumarate),melting point,,201 to 202.5 °C
O=[N+]([O-])c1cc2c(cc1NC1=NCCN1)CCC2 (as salt: fumarate),melting point,,213 to 214 °C (dec.)
CC1CCCc2ccc(NC3=NCCN3)cc21 (centres unmarked) (as salt: fumarate),melting point,,185 to 187 °C (dec.)
"c1nc2c(cc1NC1=NCCN1)CSCC2 (as salt: fumarate) [Example 25, 2-(5,6,7,8-tetrahydro-6-thia-quinolin-3-yl)amino-2-imidazoline]",melting point,,199.5 to 200.5 °C

# From patent US6777426B2, “Imidazole and imidazoline derivatives and uses thereof” (Synaptic Pharmaceutical Corporation, priority 1997, dated 2004)
